The values that follow come from publication PMC11204923, “Marine Cytotoxin Santacruzamate A Derivatives as Potent HDAC1-3 Inhibitors and Their Synergistic Anti-Leukemia Effects with Venetoclax” (Marine Drugs, 2024).

Broadly, the IC50 is the concentration that gives 50% inhibition.

Test [1] deals with T1, HDAC2 (Homo sapiens, UniProt Q92769).
T1 construct: purchased BPS Bioscience
Kind of test: In vitro HDAC inhibition fluorescence assay, HDAC2. It is filed as biochemical. The method, then: All of the HDAC enzymes were purchased from BPS Bioscience. In vitro HDAC inhibition assays were conducted as previously described. In brief, 20 μL of recombinant HDAC enzyme solution (HDAC1-9, 11) was mixed with various concentrations of the tested compound (20 μL). […] After incubation at 37 °C for 2 h, the catalysis was stopped by the addition of 10 μL of developer containing 30 mg/mL trypsin and 6 μM trichostatin A (TSA). Then, 30 min later, the fluorescence intensity was measured using a microplate reader at excitation and emission wavelengths of 360 and 460 nm, respectively. The inhibition ratios were calculated from the fluorescence intensity readings of tested wells relative to those of control wells, and the IC50 curves and values were determined by GraphPad Prism 6.0, using the “log(inhibitor) vs. normalized response-variable slope” function.

The target in test [2] is T2, HDAC8 (Homo sapiens, UniProt Q9BY41).
T2 construct: purchased BPS Bioscience
T2 sequence (Q9BY41 1-377): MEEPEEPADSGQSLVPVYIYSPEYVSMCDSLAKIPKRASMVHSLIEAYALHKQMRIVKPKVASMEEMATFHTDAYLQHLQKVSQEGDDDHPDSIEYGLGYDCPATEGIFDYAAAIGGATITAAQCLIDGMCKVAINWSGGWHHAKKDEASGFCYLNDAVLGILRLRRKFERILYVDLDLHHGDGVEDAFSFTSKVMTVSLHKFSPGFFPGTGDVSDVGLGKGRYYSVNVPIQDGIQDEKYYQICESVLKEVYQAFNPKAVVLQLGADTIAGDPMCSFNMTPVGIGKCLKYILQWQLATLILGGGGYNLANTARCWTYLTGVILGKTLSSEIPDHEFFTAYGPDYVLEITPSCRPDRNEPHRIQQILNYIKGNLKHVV
Kind of test: In vitro HDAC inhibition fluorescence assay, HDAC8. It is filed as biochemical. The method, then: All of the HDAC enzymes were purchased from BPS Bioscience. In vitro HDAC inhibition assays were conducted as previously described. In brief, 20 μL of recombinant HDAC enzyme solution (HDAC1-9, 11) was mixed with various concentrations of the tested compound (20 μL). The mixture was incubated at 37 °C for 1 h, and then, 10 μL of fluorogenic substrate (Boc-Lys (acetyl)-AMC for HDAC1, 2, 3 and 6; Boc-Lys (trifluoroacetyl)AMC for HDAC4, 5, 7, 8, 9 and 11) was added to achieve a final concentration of 50 μM. After incubation at 37 °C for 2 h, the catalysis was stopped by the addition of 10 μL of developer containing 30 mg/mL trypsin and 6 μM trichostatin A (TSA). Then, 30 min later, the fluorescence intensity was measured using a microplate reader at excitation and emission wavelengths of 360 and 460 nm, respectively. The inhibition ratios were calculated from the fluorescence intensity readings of tested wells relative to those of control wells, and the IC50 curves and values were determined by GraphPad Prism 6.0, using the “log(inhibitor) vs. normalized response-variable slope” function.

In test [3] the test system is HL-60 cells. The test is described as follows: Cell viability assay (resazurin), HL-60. The format is cell-based. As to conditions: Homo sapiens, HL-60, 72 h; read-out: IC50 anti-proliferative activity HL-60. How it is done:
(§1) The AML cell lines MV4-11, THP-1, KASUMI-1 and HL-60 were purchased from Procell Life Science & Technology Co., Ltd. (Wuhan, China). THP-1 and KASUMI-1 were cultured in RPMI-1640 complete medium containing 10% fetal bovine serum and 1% penicillin and streptomycin. MV4-11 was cultured in IMDM complete medium containing 10% fetal bovine serum and 1% penicillin and streptomycin. HL-60 was cultured in IMDM complete medium containing 20% fetal bovine serum and 1% penicillin and streptomycin. All cell lines were cultured in an incubator with humidity set at 95%, temperature at 37 °C and 5% CO2.
(§2) MV4-11, THP-1, KASUMI-1 and HL-60 cells were plated in 96-well transparent plates (10,000 to 15,000 cells/100 μL) and after incubation overnight, cells were treated with gradient-diluted inhibitors with several concentrations. After the cells were incubated with inhibitors for 72 h, 1 mg/mL of Resazurin (Sigma-Aldrich, Saint Louis, MO, USA) was added (working concentration was 0.1 mg/mL). After incubation at 37 °C for about 3 h, the fluorescence intensity of […] was measured at 560 nm/590 nm (excitation/emission) with a Spectra Max i3 Microplate Reader, and the cell viability was determined. The IC50 curve was drawn using GraphPad Prism 9.5 software.

For test [4], the system named is Kasumi-1 cells. Kind of test: Cell viability assay (resazurin), Kasumi-1. It is filed as cell-based. The note with it: Homo sapiens, Kasumi 1, 72 h; read-out: IC50 anti-proliferative activity Kasumi-1. How it is done: as §1, §2
(Alamar Blue is a resazurin reagent that responds to reducing activity.)

The test system of test [5] is MV4-11 cells. The test is described as follows: Western blot analysis. It is filed as cell-based. The note with it: 24 h. The method, then:
MV4-11 cells were inoculated into 12-well plates at a density of 800,000 cells/mL. After incubation overnight, each well was treated with different concentrations of 25c and Venetoclax alone or in combination. After treatment for 24 h, the cells were collected and washed with pre-cooled PBS. A protease inhibitor (cocktail) and RIPA buffer were added for cell lysis. The decomposed solution was centrifuged at 12,000 rpm for 15 min at 4 °C, and the extracted protein was located in the supernatant. The proteins in each sample were denatured by heating at 100 °C in loading buffer (5×) for 10 min. The same amount of proteins in each sample was separated by SDS-PAGE and then electrotransferred to a PVDF membrane (Merck Millipore, Billerica, MA, USA) and enclosed in 5% skim milk powder for 1 h. The primary antibody diluted with an immune response booster solution was incubated in a shaking bed at 4 °C overnight, and the horseradish (HRP)-conjugated second antibody diluted with 5% skim milk powder was incubated at room temperature for 1 h on the second day. After the PVDF membrane was washed with TBST, the target protein bands could be detected with chemiluminescent reagents (Millipore, Billerica, MA, USA) and visualized in the Tanon 5200 + fluorescence imager.
The primary antibodies Caspase 3 (including Cleaved Caspase-3) (sc-56053), Mcl-1 (94296S), Bcl-xL (ab98143), γ-H2AX (9718S), AcHH3 (Lys27) (8173S), AcHH4 (sc-377520), HH3 (ab1791), Ac-tubulin (sc-23950), HDAC6 (sc-28386), α-tubulin (sc-23948), GAPDH (sc-59540) and β-actin (8H10D10) were purchased from Abcam, Cell Signaling Technology and Santa Cruz Biotechnology.
In general terms: Immunoblotting shows a protein as a band on a membrane.

T1 sequence (Q92769 whole entry): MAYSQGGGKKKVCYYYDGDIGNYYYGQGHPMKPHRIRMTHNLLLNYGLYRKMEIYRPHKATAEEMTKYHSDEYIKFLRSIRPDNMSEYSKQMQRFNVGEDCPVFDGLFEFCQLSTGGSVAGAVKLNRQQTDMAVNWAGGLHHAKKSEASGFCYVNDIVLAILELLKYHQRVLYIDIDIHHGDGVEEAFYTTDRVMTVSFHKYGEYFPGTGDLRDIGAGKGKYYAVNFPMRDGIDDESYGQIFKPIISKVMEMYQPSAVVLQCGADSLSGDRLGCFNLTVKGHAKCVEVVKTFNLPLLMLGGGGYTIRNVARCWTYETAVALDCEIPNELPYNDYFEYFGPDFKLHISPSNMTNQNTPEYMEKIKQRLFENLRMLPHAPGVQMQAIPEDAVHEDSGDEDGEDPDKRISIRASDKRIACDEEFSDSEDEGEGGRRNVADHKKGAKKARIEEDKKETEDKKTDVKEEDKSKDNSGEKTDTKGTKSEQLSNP

For `CCCNNC(=O)C=Cc1ccc(CNCCc2ccccc2)cc1` [Compound 25c, 3-(4-((Phenethylamino)methyl)phenyl)-N′-propylacrylohydrazide], the concentration for half-maximal inhibition (IC50) in test [1] was determined as 135 ± 13.3 nM; in test [2] it was 4110 ± 630 nM; in test [3], 480 ± 177 nM; in test [4] it was 338 ± 125 nM. Further, the “level of cleaved-caspase3” value in test [5] (25c monotherapy, 30 nM and 90 nM) is recorded as “No substantial alterations”. In test [5], the level of acetyl-tubulin entry is listed as “increased”. For the same compound, the “level of acetylated histone H3 (AcHH3)” value in test [5] was “significantly elevated”. The “level of acetylated histone H4 (AcHH4)” value in test [5] is on record as “significantly elevated”.
